From patent US6335436B1, “Oligonucleotides active against drug-resistant bacteria” (priority 1995, dated 2002)

Legend:
Assay type in all cases: cell-based, Mycobacterium smegmatis
M. smegmatis ATCC 607 [1] = experiment: Inhibition of M. smegmatis growth in broth cultures (cell counts); settings: for Cell Numbers per ml × 10^6: no ODS
M. smegmatis mc^2155 = experiment: MIC of ethambutol in the presence of oligodeoxynucleotide phosphorothioates in broth cultures; settings: Mycolicibacterium smegmatis, 336 h, no ODS, at least 99% inhibition of cell growth during two weeks
M. smegmatis ATCC 607 [2] = experiment: as above; settings: Mycolicibacterium smegmatis, ATCC607, 336 h, read-out: MIC of ethambutol

N[C@@H]1CONC1=O [D-cycloserine]
Cell Numbers per ml × 10^6 (M. smegmatis ATCC 607 [1]; Table IV, free D-cycloserine 1 μg/ml alone, 24 hrs): 617 × 10^6 cells per ml
Cell Numbers per ml × 10^6 (M. smegmatis ATCC 607 [1]; Table IV, free D-cycloserine 1 μg/ml alone, 48 hrs): 549 × 10^6 cells per ml
Cell Numbers per ml × 10^6 (M. smegmatis ATCC 607 [1]; Table IV, free D-cycloserine 1 μg/ml alone, 72 hrs): 504 × 10^6 cells per ml
Cell Numbers per ml × 10^6 (M. smegmatis ATCC 607 [1]; Table IV, free D-cycloserine 5 μg/ml alone, 24 hrs): 551 × 10^6 cells per ml
Cell Numbers per ml × 10^6 (M. smegmatis ATCC 607 [1]; Table IV, free D-cycloserine 5 μg/ml alone, 48 hrs): 482 × 10^6 cells per ml
Cell Numbers per ml × 10^6 (M. smegmatis ATCC 607 [1]; Table IV, free D-cycloserine 5 μg/ml alone, 72 hrs): 420 × 10^6 cells per ml
Cell Numbers per ml × 10^6 (M. smegmatis ATCC 607 [1]; Table IV, free D-cycloserine 30 μg/ml alone, 24 hrs): 363 × 10^6 cells per ml
Cell Numbers per ml × 10^6 (M. smegmatis ATCC 607 [1]; Table IV, free D-cycloserine 30 μg/ml alone, 48 hrs): 291 × 10^6 cells per ml
Cell Numbers per ml × 10^6 (M. smegmatis ATCC 607 [1]; Table IV, free D-cycloserine 30 μg/ml alone, 72 hrs): 236 × 10^6 cells per ml
inhibition of growth (M. smegmatis ATCC 607 [1]; free D-cycloserine in liquid medium, 1.0 μg/ml): minimal inhibition of growth
inhibition of M. smegmatis growth (M. smegmatis ATCC 607 [1]; free D-cycloserine in liquid medium, 10-30 μg/ml): significant inhibition

CC[C@@H](CO)NCCN[C@@H](CC)CO [Ethambutol, ethambutol]
MIC (M. smegmatis mc^2155): 30 µg/mL
MIC (M. smegmatis ATCC 607 [2]): 25 µg/mL
Cell Numbers per ml × 10^6 (M. smegmatis ATCC 607 [1]; Table I, ethambutol 0.5 ug/ml alone, 24 hrs): 71 × 10^6 cells per ml
Cell Numbers per ml × 10^6 (M. smegmatis ATCC 607 [1]; Table I, ethambutol 0.5 ug/ml alone, 48 hrs): 240 × 10^6 cells per ml
Cell Numbers per ml × 10^6 (M. smegmatis ATCC 607 [1]; Table I, ethambutol 0.5 ug/ml alone, 72 hrs): 411 × 10^6 cells per ml
Cell Numbers per ml × 10^6 (M. smegmatis ATCC 607 [1]; Table I, ethambutol 1 ug/ml alone, 24 hrs): 39 × 10^6 cells per ml
Cell Numbers per ml × 10^6 (M. smegmatis ATCC 607 [1]; Table I, ethambutol 1 ug/ml alone, 48 hrs): 109 × 10^6 cells per ml
Cell Numbers per ml × 10^6 (M. smegmatis ATCC 607 [1]; Table I, ethambutol 1 ug/ml alone, 72 hrs): 172 × 10^6 cells per ml
Cell Numbers per ml × 10^6 (M. smegmatis ATCC 607 [1]; Table I, ethambutol 5 ug/ml alone, 24 hrs): 25 × 10^6 cells per ml
Cell Numbers per ml × 10^6 (M. smegmatis ATCC 607 [1]; Table I, ethambutol 5 ug/ml alone, 48 hrs): 68 × 10^6 cells per ml
Cell Numbers per ml × 10^6 (M. smegmatis ATCC 607 [1]; Table I, ethambutol 5 ug/ml alone, 72 hrs): 111 × 10^6 cells per ml
Cell Numbers per ml × 10^6 (M. smegmatis ATCC 607 [1]; Table III, ethambutol 0.5 μg/ml alone, 24 hrs): 77 × 10^6 cells per ml
Cell Numbers per ml × 10^6 (M. smegmatis ATCC 607 [1]; Table III, ethambutol 0.5 μg/ml alone, 48 hrs): 189 × 10^6 cells per ml
Cell Numbers per ml × 10^6 (M. smegmatis ATCC 607 [1]; Table III, ethambutol 0.5 μg/ml alone, 72 hrs): 388 × 10^6 cells per ml
